Values joined by “and” are separate entries in the source; they are usually repeats but may differ in a detail not shown here. Equal entries are not always repeated.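 Five compound concentrations were applied to cells in 96-well plates for 48 hours; endpoints were derived by simple linear interpolation of the resulting dose-response curve. GI50 marks 50% less growth. Definition used: TGI = concentration required for complete inhibition of growth.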 *1 amine or outer side, *2 acyl side, *3 side chain or, on linkers, in order; H or OH if unused. Where a SMILES comes first, the peptide text is derived from it. Bridges are numbered along the chain shown (N, C = ends). Roman numbers before positions name the chains, in order. X23 = CCCCCCCCCCCCCCC(=O)NC(CCCCN[*:2])C(=O)CN1CCCC1C(=O)[*:1]
How the values were obtained:
Assay in all cases: DTP human tumour cell line panel, 48 h
IGROV1 ovarian = test system: IGROV1 ovarian
SK-MEL-2 melanoma = test system: SK-MEL-2 melanoma
KM12 colon = test system: KM12 colon
ACHN renal = test system: ACHN renal
SF-268 CNS = test system: SF-268 CNS
SF-295 CNS = test system: SF-295 CNS
OVCAR-3 ovarian = test system: OVCAR-3 ovarian
T-47D breast = test system: T-47D breast
PC-3 prostate = test system: PC-3 prostate
MDA-MB-231 breast = test system: MDA-MB-231 breast

Row | SMILES | TGI (IGROV1 ovarian) | TGI (SK-MEL-2 melanoma) | TGI (KM12 colon) | TGI (ACHN renal) | TGI (SF-268 CNS) | TGI (SF-295 CNS) | TGI (OVCAR-3 ovarian) | TGI (T-47D breast) | TGI (PC-3 prostate) | TGI (MDA-MB-231 breast) | GI50 (IGROV1 ovarian) | GI50 (SK-MEL-2 melanoma) | GI50 (KM12 colon) | GI50 (ACHN renal) | GI50 (SF-268 CNS) | GI50 (SF-295 CNS) | GI50 (OVCAR-3 ovarian) | GI50 (T-47D breast) | GI50 (MDA-MB-231 breast)
1 | O=C1NC2(NC(=O)C1=O)Nc1ccccc1S2 | > 100 µM | > 100 µM | > 100 µM | > 76.1 µM | > 76.3 µM | > 100 µM | > 100 µM | – | – | – | – | – | – | – | – | – | – | – | –
2 | O=CN(O)CC(=O)O.[Ni] | > 100 µM | – | > 100 µM | > 100 µM | > 100 µM | > 100 µM | > 100 µM | > 100 µM | > 100 µM | > 100 µM | – | – | – | – | – | – | – | – | –
3 | COc1cccc2c1C(=O)c1c(O)c3c(c(O)c1C2=O)C[C@@](O)(C(C)=O)C[C@@H]3OC1CC(N(C)C)C(O)C(C)O1 (stereo partly drawn) | – | 0.308 µM and 0.0915 µM | – | – | – | – | – | 0.00329 µM | 0.00144 µM | 0.005 µM | 0.0218 µM and < 0.0111 µM | < 0.0113 µM | 0.0171 µM and 0.0131 µM | 0.00902 µM | < 0.0191 µM | 0.0188 µM and 0.0254 µM | 0.108 µM and 0.155 µM | – | –
4 | Nc1nccc2c1ncn2C1C=C(CO)C(O)C1O (stereo not drawn) | > 1000 µM | 99.1 µM | > 1000 µM | – | – | – | > 1000 µM | – | – | – | > 1000 µM | – | 0.755 µM | – | – | – | 136 µM | – | –
5 | CC(=O)C1=C(C)N(c2ccc(C)cc2)C2(O)C=CC(=O)C3=C(O)c4ccccc4C(=O)C312 (stereo not drawn) | > 100 µM | 30.3 µM | 55.1 µM | 36.8 µM | 62.4 µM | 43.3 µM | 16.1 µM | > 100 µM | 41.5 µM | 70.2 µM | – | – | – | – | – | – | – | – | –
6 | OCCSCc1cc(Cl)cc(Cl)c1O | > 100 µM | – | > 100 µM | > 100 µM | > 100 µM | > 100 µM | > 100 µM | > 100 µM | > 100 µM | > 100 µM | – | – | – | – | – | – | – | – | –
7 | NS(=O)(=O)c1ccc(N=Nc2ccc(O)c(O)c2)cc1 | 28.3 µM | 34 µM | 32.5 µM | 17 µM | 50.2 µM | > 100 µM | > 100 µM | > 100 µM | > 100 µM | 38.8 µM | – | – | – | – | – | – | – | – | –
8 | CCCCCCCCCCCCCCC(=O)NC(CCCCNC(=O)C1CCCN1C(=O)C(CCCCN)NC(=O)C(CCCCN)NC(=O)C(CCCCN)NC(=O)C(CCCNC(=N)N)NC(=O)C(CCCCN)NC(=O)C(N)C(C)C)C(=O)CN1CCCC1C(=O)NCC(=O)NC(Cc1ccccc1)C(=O)N1CCCC1C(=O)NC(CO)C(=O)NC(Cc1ccc(O)cc1)C(=O)NC(CCCCN)C(=O)NC(CC(C)C)C(=O)NC(CCCNC(=N)N)C(=O)N1CCCC1C(=O)NCC(N)=O (stereo not drawn) (I: GFPSYKLRPG-NH2 / II: H-VKRKKKP; linker I:N-II:C via X23; configuration not given here) | 52.4 µM | > 100 µM | 3.85 µM | – | 40.8 µM | 59.3 µM | 94.6 µM | 13.9 µM | – | 43.7 µM | 14.8 µM | 51.7 µM | 1.89 µM | – | 14.6 µM | 18.1 µM | 18.7 µM | 3.17 µM | 20.9 µM
9 | CC1C(O)[C@@]2(OC[C@@]34C(=O)CC5(O)[C@H](CCC6Cc7nc8c(nc7C[C@]65C)CC5CC[C@@H]6C7=C[C@H]9O[C@@]%10(O[C@@](C)(CO)C[C@@H]%10O)C(C)[C@@]9(O)[C@]7(C)[C@@H](O)CC6[C@]5(C)C8)C3=CC[C@H]4C2C)OC1(C)C (stereo partly drawn) | > 3.55 µM | 0.0141 µM | > 3.55 µM | – | 0.37 µM | < 0.000355 µM | > 3.55 µM | – | – | – | – | – | – | – | – | – | – | – | –
10 | O=C1/C(=C/c2ccc3c(c2)OCO3)Sc2scc(-c3ccc(O)c(O)c3)[n+]21 | 8.09 µM | 24.8 µM | 13.1 µM | 3.94 µM | 97.2 µM | 25.5 µM | 15.3 µM | > 100 µM | 16.2 µM | > 28.8 µM | – | – | – | – | – | – | – | – | –
11 | Cc1cc(O)c2cc3c(O)c(O)ccc3cc2c1 | 10.8 µM | 3.22 µM | 2.32 µM | 5.71 µM | 8.51 µM | 10.8 µM | 6.04 µM | 6.28 µM | 19.3 µM | 3.21 µM | – | – | – | – | – | – | – | – | –
12 | CCOC(=O)c1c(SC)nc(-c2ccc(Cl)cc2)sc1=N | 54.5 µM | 52.7 µM | > 100 µM | > 100 µM | > 100 µM | > 100 µM | > 100 µM | > 100 µM | 61.9 µM | > 100 µM | – | – | – | – | – | – | – | – | –
13 | O=[N+]([O-])c1ccc(/C=N/n2c(CCc3n[nH]c(=S)n3/N=C/c3ccc([N+](=O)[O-])o3)n[nH]c2=S)o1 | > 100 µM | 42.9 µM | 64.4 µM | 63.4 µM | 50.7 µM | > 100 µM | 54.2 µM | 62.8 µM | > 100 µM | 52.4 µM | – | – | – | – | – | – | – | – | –
14 | O=CNNC(=O)CSc1nc2ccc(I)cc2c(=O)n1Cc1ccccc1 | > 100 µM | 44.4 µM | > 100 µM | > 100 µM | > 100 µM | > 100 µM | 50.2 µM | > 100 µM | > 100 µM | 81.8 µM | – | – | – | – | – | – | – | – | –
15 | Cc1ccc([S+](c2ccccc2)c2cc(C)ccc2C)cc1 (stereo not drawn) | 25.3 µM | – | > 100 µM | > 100 µM | > 100 µM | 69.1 µM | > 100 µM | – | – | – | – | – | – | – | – | – | – | – | –
16 | COC1=CCC2=C(CCN(C(=O)C3CC3)C2Cc2ccc(OC)c(O)c2)C1 (stereo not drawn) | > 100 µM | > 100 µM | > 100 µM | > 100 µM | > 100 µM | > 100 µM | > 100 µM | 70.9 µM | > 100 µM | > 100 µM | – | – | – | – | – | – | – | – | –
17 | CC(=O)OCC1OC(N2C(=O)CC(N)=Nc3ccccc32)C(OC(C)=O)C(OC(C)=O)C1OC(C)=O (stereo not drawn) | > 100 µM | > 100 µM | > 100 µM | > 100 µM | > 100 µM | > 100 µM | > 100 µM | 82.2 µM | > 100 µM | > 100 µM | – | – | – | – | – | – | – | – | –
18 | O=C1CC(NC2CC(=O)c3c(Br)sc(Br)c32)c2c(Br)sc(Br)c21 (stereo not drawn) | 8.43 µM | 14.5 µM | 6.03 µM | 5.22 µM | 26.2 µM | 27.8 µM | > 100 µM | 8.25 µM | 7.52 µM | 10.3 µM | – | – | – | – | – | – | – | – | –
19 | Oc1ccc(NCc2cc(O)ccc2O)cc1 | 34.2 µM | 36.3 µM | 42 µM | 29.6 µM | 34.8 µM | 38.3 µM | 32 µM | 52.1 µM | 28.4 µM | 29.2 µM | – | – | – | – | – | – | – | – | –
20 | CC(C)(C)OC(=O)N1CCCC1C(=O)NCCNc1ccc(NCCNC(=O)C2CCCN2C(=O)OC(C)(C)C)c2c1C(=O)c1ccccc1C2=O (stereo not drawn) | 31.7 µM | 38.5 µM | 41.7 µM | 31.6 µM | > 100 µM | 32 µM | 27.1 µM | – | 26.4 µM | 25.9 µM | – | – | – | – | – | – | – | – | –
21 | CN(CCNC(=O)c1cn(C)c2c1ccc1cc(Cl)ccc12)CCNC(=O)c1cn(C)c2c1ccc1cc(Cl)ccc12 | 21.6 µM | 13.7 µM | 3.03 µM | 9.73 µM | 3.51 µM | – | 6.43 µM | – | 11.5 µM | 71.8 µM | – | – | – | – | – | – | – | – | –

— PubChem BioAssay (NCI)
